Patent publication US4450269A, “Mono-5-substituted-3-chloro-4H-1,2,6-thiadiazin-4-one antifungal agents” (FMC Corporation, priority 1980, dated 1984)
Read-outs that look alike come from different tables or passages of the source.

Tested on: Helminthosporium oryzae
Assay: Mycelial growth test
Conditions: Bipolaris oryzae, 72 h
[1] = read-out: Percent Fungus Growth Inhibition, HO, 5 ppm, 72 hours
[2] = read-out: Percent Fungus Growth Inhibition, HO, 10 ppm, 72 hours
[3] = read-out: Percent Fungus Growth Inhibition, HO, 20 ppm, 72 hours
[4] = read-out: Percent Fungus Growth Inhibition, HO, 40 ppm, 72 hours
[5] = read-out: Percent Fungus Growth Inhibition

Experimental: HO = Helminthosporium oryzae
Aliquots of previously prepared solutions of active ingredient in acetone were added to tubes containing 20 ml of sterile, melted potato dextrose agar that had been cooled to 50° C. to provide mixtures of 40, 20, 10, 5 and 2.5 ppm. The tubes were shaken to ensure thorough mixing of the chemical with the agar, and the mixture poured into petri dishes having 4 quadrants to solidify. Each quadrant was inoculated with a 4 mm diameter disc of agar containing mycelium of the test fungi and incubated at 25° C. for 72 hours during which the samples were alternately exposed to light for 12 hours and to darkness for 12 hours. Growth was measured at the end of the incubation period by measuring the diameter of each fungus colony. Two measurements of the diameter, perpendicular to each other, were taken and the values averaged. Data are reported as percent inhibition (%I) by the following formula: [formula] Captan and chlorothalonil were used as standards for comparison.

O=c1c(Cl)nsnc1Oc1c(Cl)cc(Cl)cc1Cl [Compound 30, 3-chloro-5-(2,4,6-trichlorophenoxy)-4H--1,2,6-thiadiazin-4-one]
inhibition at 5 ppm [1]: 59% | inhibition at 10 ppm [2]: 100% | inhibition at 20 ppm [3]: 100% | inhibition at 40 ppm [4]: 100%

O=c1c(Cl)nsnc1Oc1c(Cl)c(Cl)c(Cl)c(Cl)c1Cl [Compound 31, 3-chloro-5-(pentachlorophenoxy)-4H--1,2,6-thiadiazine-4-one]
inhibition at 5 ppm [1]: 57% | inhibition at 10 ppm [2]: 86% | inhibition at 20 ppm [3]: 57% | inhibition at 40 ppm [4]: 100%

O=c1c(Cl)nsnc1Oc1cccc2ccccc12 [Compound 32, 3-chloro-5(1-naphthoxy)-4H-1,2,6-thiadiazin-4-one]
inhibition at 5 ppm [1]: 100% | inhibition at 10 ppm [2]: 63% | inhibition at 20 ppm [3]: 100% | inhibition at 40 ppm [4]: 100%

O=c1c(Cl)nsnc1Oc1ccccc1Br [Compound 34, 3-chloro-5-(2-bromophenoxy)-4H-1,2,6,-thiadiazin-4-one]
inhibition at 5 ppm [1]: 74% | inhibition at 10 ppm [2]: 74% | inhibition at 20 ppm [3]: 100% | inhibition at 40 ppm [4]: 100%

O=c1c(Cl)nsnc1Oc1ccc(O)cc1 [Compound 35, 3-chloro-5-(4-hydroxyphenoxy)-4H-1,2,6-thiadiazin-4-one]
inhibition at 5 ppm [1]: 83% | inhibition at 10 ppm [2]: 100% | inhibition at 20 ppm [3]: 89% | inhibition at 40 ppm [4]: 100%

O=C(Nc1ccccc1)Oc1ccc(Oc2nsnc(Cl)c2=O)cc1 [Compound 37, 3-chloro-5-[4-(phenylaminocarbonyloxy)phenoxy]-4H-1,2,6,-thiadiazin-4-one]
inhibition at 5 ppm [5]: 27% | inhibition at 10 ppm [5]: 13% | inhibition at 20 ppm [5]: 60% | inhibition at 40 ppm [5]: 47%

CSc1ccc(Oc2nsnc(Cl)c2=O)cc1 [Compound 39, 3-chloro-5-[(4-methylthio)phenoxy]-4H-1,2,6,-thiadiazin-4-one]
inhibition at 5 ppm [1]: 73% | inhibition at 10 ppm [2]: 87% | inhibition at 20 ppm [3]: 100% | inhibition at 40 ppm [4]: 80%

C[S+]([O-])c1ccc(Oc2nsnc(Cl)c2=O)cc1 (stereo not drawn) [Compound 40, 3-chloro-5-[(4-methylsulfinyl)phenoxy]-4H-1,2,6,-thiadiazin-4-one]
inhibition at 5 ppm [1]: 40% | inhibition at 10 ppm [2]: 60% | inhibition at 20 ppm [3]: 87% | inhibition at 40 ppm [4]: 100%

CS(=O)(=O)c1ccc(Oc2nsnc(Cl)c2=O)cc1 [Compound 41, 3-chloro-5-[(4-methylsulfonyl)phenoxy]-4H--1,2,6-thiadiazin-4-one]
inhibition at 5 ppm [1]: 40% | inhibition at 10 ppm [2]: 60% | inhibition at 20 ppm [3]: 33% | inhibition at 40 ppm [4]: 60%

CC(=O)Nc1cccc(Oc2nsnc(Cl)c2=O)c1 [Compound 42, 3-[(3-N--acetylamino)-phenoxy]-5-chloro-4H--1,2,6-thiadiazin-4-one]
inhibition at 5 ppm [1]: 23% | inhibition at 10 ppm [2]: 38% | inhibition at 20 ppm [3]: 100% | inhibition at 40 ppm [4]: 100%

CC(=O)Nc1ccccc1Oc1nsnc(Cl)c1=O [Compound 43, 3-[(2-acetylamino)-phenoxy]-5-chloro-4H--1,2,6-thiadiazin-4-one]
inhibition at 5 ppm [1]: 61% | inhibition at 10 ppm [2]: 70% | inhibition at 20 ppm [3]: 65% | inhibition at 40 ppm [4]: 91%

O=c1c(Cl)nsnc1Oc1cccc(C(F)(F)F)c1 [Compound 44, 3-chloro-5-[(3-trifluoromethyl)phenoxy]-4H--1,2,6-thiadiazin-4-one]
inhibition at 5 ppm [1]: 100% | inhibition at 10 ppm [2]: 100% | inhibition at 20 ppm [3]: 100% | inhibition at 40 ppm [4]: 100%

O=C(O)Cc1ccccc1Oc1nsnc(Cl)c1=O [Compound 45, 3-(2-carboxymethylphenoxy)-5-chloro-4H--1,2,6-thiadiazin-4-one]
inhibition at 5 ppm [1]: 0% | inhibition at 10 ppm [2]: 0% | inhibition at 20 ppm [3]: 63% | inhibition at 40 ppm [4]: 100%

N#CCc1ccc(Oc2nsnc(Cl)c2=O)cc1 [Compound 46, 3-chloro-5-[(4-cyanomethyl)-phenoxy]4H--1,2,6-thiadiazin-4-one]
inhibition at 5 ppm [1]: 67% | inhibition at 10 ppm [2]: 89% | inhibition at 20 ppm [3]: 100% | inhibition at 40 ppm [4]: 100%

CC(=O)c1ccc(Oc2nsnc(Cl)c2=O)cc1 [Compound 47, 3-(4-acetylphenoxy)-5-chloro-4H--1,2,6-thiadiazin-4-one]
inhibition at 5 ppm [1]: 75% | inhibition at 10 ppm [2]: 88% | inhibition at 20 ppm [3]: 100% | inhibition at 40 ppm [4]: 100%

CC(=O)c1cccc(Oc2nsnc(Cl)c2=O)c1 [Compound 48, 3-(3-acetylphenoxy)-5-chloro-4H--1,2,6-thiadiazin-4-one]
inhibition at 5 ppm [1]: 100% | inhibition at 10 ppm [2]: 63% | inhibition at 20 ppm [3]: 100% | inhibition at 40 ppm [4]: 100%

CC(=O)c1ccccc1Oc1nsnc(Cl)c1=O [Compound 49, 3-(2-acetylphenoxy)-5-chloro-4H--1,2,6-thiadiazin-4-one]
inhibition at 5 ppm [1]: 74% | inhibition at 10 ppm [2]: 100% | inhibition at 20 ppm [3]: 100% | inhibition at 40 ppm [4]: 100%

O=C(O)c1ccc(Oc2nsnc(Cl)c2=O)cc1 [Compound 50, 3-(4-carboxyphenoxy)-5-chloro-4H--1,2,6-thiadiazin-4-one]
inhibition at 5 ppm [1]: 75% | inhibition at 10 ppm [2]: 38% | inhibition at 20 ppm [3]: 100% | inhibition at 40 ppm [4]: 100%

COc1ccc(Cl)c(Oc2nsnc(Cl)c2=O)c1 [Compound 51, 3-chloro-5-[(2-chloro-5-methoxy)phenoxy]-4H--1,2,6-thiadiazin-4-one]
inhibition at 5 ppm [1]: 78% | inhibition at 10 ppm [2]: 100% | inhibition at 20 ppm [3]: 100% | inhibition at 40 ppm [4]: 100%

O=c1c(Cl)nsnc1Oc1ccc([N+](=O)[O-])cc1Cl [Compound 53, 3-chloro-5-(2-chloro-4-nitrophenoxy)-4H--1,2,6-thiadiazin-4-one]
inhibition at 5 ppm [1]: 27% | inhibition at 10 ppm [2]: 100% | inhibition at 20 ppm [3]: 100% | inhibition at 40 ppm [4]: 100%

Cc1cc(Oc2nsnc(Cl)c2=O)ccc1Cl [Compound 54, 3-chloro-5-(4-chloro-3-methylphenoxy)-4H--1,2,6-thiadiazin-4-one]
inhibition at 5 ppm [1]: 43% | inhibition at 10 ppm [2]: 91% | inhibition at 20 ppm [3]: 73% | inhibition at 40 ppm [4]: 100%

Cc1cc(Cl)ccc1Oc1nsnc(Cl)c1=O [Compound 55, 3-chloro-5-(4-chloro-2-methylphenoxy)-4H--1,2,6-thiadiazin-4-one]
inhibition at 5 ppm [1]: 100% | inhibition at 10 ppm [2]: 100% | inhibition at 20 ppm [3]: 91% | inhibition at 40 ppm [4]: 100%

Cc1ccc(Cl)c(Oc2nsnc(Cl)c2=O)c1 [Compound 56, 3-chloro-5-[(2-chloro-5-methyl)phenoxy]-4H--1,2,6-thiadiazin-4-one]
inhibition at 5 ppm [1]: 67% | inhibition at 10 ppm [2]: 100% | inhibition at 20 ppm [3]: 100% | inhibition at 40 ppm [4]: 100%

Cc1ccc(Oc2nsnc(Cl)c2=O)c(Br)c1 [Compound 57, 3-[(2-bromo-4-methyl)-phenoxy]-5-chloro-4H--1,2,6-thiadiazin-4-one]
inhibition at 5 ppm [1]: 100% | inhibition at 10 ppm [2]: 100% | inhibition at 20 ppm [3]: 100% | inhibition at 40 ppm [4]: 100%

Cc1cc(Cl)c(Oc2nsnc(Cl)c2=O)cc1C [Compound 58, 3-chloro-5-[(2-chloro-4,5-dimethyl)phenoxy]-4H--1,2,6-thiadiazin-4-one]
inhibition at 5 ppm [1]: 54% | inhibition at 10 ppm [2]: 54% | inhibition at 20 ppm [3]: 69% | inhibition at 40 ppm [4]: 69%

Cc1cc(Oc2nsnc(Cl)c2=O)cc(C)c1Cl [Compound 59, 3-chloro-5-[(4-chloro-3,5-dimethyl)phenoxy]-4H--1,2,6-thiadiazin-4-one]
inhibition at 5 ppm [1]: 100% | inhibition at 10 ppm [2]: 100% | inhibition at 20 ppm [3]: 100% | inhibition at 40 ppm [4]: 100%

Cc1cc(Oc2nsnc(Cl)c2=O)cc(C)c1Br [Compound 60, 3-[(4-bromo-3,5-dimethyl)-phenoxy]-5-chloro-4H--1,2,6-thiadiazin-4-one]
inhibition at 5 ppm [1]: 100% | inhibition at 10 ppm [2]: 77% | inhibition at 20 ppm [3]: 69% | inhibition at 40 ppm [4]: 100%
